Results: patent publication US7700644B2, “Isoflavonoid dimers” (Novogen Research Pty Ltd, priority 2005, dated 2010)

Key:
CCRF-CEM (Leukemic) = test: In vitro cytotoxicity, MTT proliferation assay, CCRF-CEM; assay type: cell-based; details: Homo sapiens
Experimental: (§1) The human pancreatic cancer cell line, HPAC (CRL-2119) was routinely cultured in 1:1 mixture DMEM (Sigma) plus Ham's F12 (Sigma) medium containing HEPES (15 mM), insulin (0.002 mg/ml), transferrin (0.005 mg/ml), hydrocortisone, (40 ng/ml), epidermal growth factor (10 ng/ml). The ovarian cancer cell line CP70 was obtained as a gift from Dr. Gil Mor (Yale University) and cultured in a 1:1 mixture DMEM plus Ham's F12 medium, and SKOV-3 was purchased from ATCC and cultured in McCoy's 5a medium. The breast cancer cell line MDA-MB-468 cultured in Leibovitz's L-15 medium.
(§2) All cultures were supplemented with 10% FCS(CSL, Australia), penicillin (100 U/ml), streptomycin ([…]), L-glutamine (2 mM) and sodium bicarbonate (1.2 g/L), and cultured at 37° C. in a humidified atmosphere of 5% CO2. All remaining cell lines were purchased from ATCC (Maryland, USA) except where noted.
(§3) IC50 values were determined for each cell line. Cells were seeded in 96-well plates at an appropriate cell density as determined from growth kinetics analysis. […] Cell proliferation was assessed after the addition of 20 μl of 3-4,5 dimethylthiazol-2,5-diphenyl tetrazolium bromide (MTT, 2.5 mg/ml in PBS, Sigma) for 3-4 hrs at 37° C. according to manufacturer's instructions. IC50 values were calculated from semi-log plots of % of control proliferation on the y-axis against log dose on the x-axis.

NCI-H23 (Lung) = test: In vitro cytotoxicity, MTT proliferation assay, NCI-H23; assay type: cell-based; details: Homo sapiens
Experimental: as §1, §2, §3

TXB2 synthesis = TXB2 synthesis in human monocytes incubated with LPS; assay type: cell-based; details: LPS 200 ng/mL, 18 hrs, dose responsive
Experimental: (§4) Human peripheral blood monocytes (from three separate individuals) were isolated from buffy coats by lymphoprep gradient separation of mononuclear cells followed by counter-current centrifugal elutriation (Demasi et al. 2000). The test compounds were dissolved in DMSO and added to fresh monocytes After 30 min, LPS was added to achieve a final concentration of 200 ng/mL. After incubation for 18 hrs at 37° C. in 5% CO2, supernatants were removed and PGE2, TXB2 (the stable hydrolysis product of TXA2) and TNFα production were measured by radioimmunoassay (RIA).

TNFα synthesis = TNFα synthesis in human monocytes incubated with LPS; assay type: cell-based; details: LPS 200 ng/mL, 18 hrs
Experimental: as §4

[1] = tested on: HCT-15 (Colorectal) cells; test: Chemosensitisation, combination with antineoplastic agent, HCT-15; assay type: cell-based, human
Experimental: The utility of the dimeric compounds of the invention to act as a chemosensitiser when used in combination with an array of standard chemotherapeutic agents was assessed. Dimeric Cpd. 2 was applied to various colorectal and pancreatic cancer cell lines to investigate its synergy with standard chemotherapeutic agents including cisplatin, gemcitabine, paclitaxel, doxorubicin, camptothecin and topotecan.
The experiment as outlined in SOP-BD011 (Versions A and B) was used to screen three antineoplastic agents against a given cell line in any ‘one’ experiment (see for example Kanzawa et al., (1997)). The inherent design of the experiment allowed for three sequences of Cpd. 2 and an antineoplastic agent. • 1) Direct Sequence—Cells are treated with both Cpd. 2 and a single antineoplastic agent (combined) for 5 days. • 2) Cpd. 2 First (Forward) Sequence—Cells are treated for 24 hours with Cpd. 2 before replacing with a 24 hour antineoplastic agent treatment; drugs are then washed out and processed on Day 5. • 3) Reverse Sequence—The reverse order to experiment No. 2 above. i.e. a cytotoxin first sequence Results and Conclusions
All data was evaluated using the formulae of theoretic additivity incorporated into a three dimensional model, as described by Kanzawa et al. (1997). This allows for simple data interpretation as values in excess of 10% are defined as ‘synergistic’ (depicted in grey) whilst those below −10% are defined as ‘antagonistic’ (depicted in black).

[2] = tested on: ear swelling in mice induced by the topical application of arachidonic acid (AA); test: Murine ear inflammation induced by arachidonic acid; assay type: in vivo, Female BALB/c mice
Experimental: Compound 2 was examined for its ability to inhibit ear swelling in mice induced by the topical application of arachidonic acid (AA). The inflammatory response due AA, the immediate precursor of the eicosanoids, is due to formation of AA metabolites via both the cyclooxygenase (COX) and lipoxygenase (LOX) pathways (Young et al. 1984). AA induces an early (10-15 min) increase in both PGE2 and LTC4 synthesis which precedes the increase in ear thickness (Opas et al. 1985; Chang et al. 1986).
Female BALB/c mice (ARC, WA, Australia), weighing 15-21 g were injected with Compound 2 delivered in polyethylene glycol (PEG) 400:phosphate buffered saline (PBS) 1:1 intraperitoneally (i/p) at a dose of 25 mg/kg 30 min prior to the application of AA being to the ears. Mice were anaesthetised using isoflurane and baseline thickness of both ears was measured using a spring micrometer. Each mouse received a total of […] of AA in ethanol (50 mg/ml) applied to the inner and outer surfaces of each pinna (i.e. 0.5 mg AA or 2 μg PMA per ear). […]
The difference in ear swelling pre- and post-application of AA for each ear was calculated, and the average for the two ears of each mouse calculated. The difference in mean swelling of each test group compared to the group given vehicle alone was calculated using a two-tailed unpaired t test (Prism 4, GraphPad Software).

With `COc1ccc(C23COc4c(ccc(O)c4C)C2C2c4ccc(O)c(C)c4OCC2c2cc(OC)c(OC)cc23)cc1OC` (stereo not shown) [Cpd. 2, 4,9-Dihydroxy-14,15-dimethoxy-12a-(3′,4′-dimethoxyphenyl)-3,10-dimethyl-2,11-dioxa-(1H,12H)-6b,6c,12a,16b-tetrahydronaphtho[1,2-g]chrysene] the IC50 (CCRF-CEM (Leukemic)) was 10.3 ± 1.33 µM, the IC50 (NCI-H23 (Lung)) was 16.4 µM and the “effect on TXB2 synthesis” value (TXB2 synthesis) was “inhibited”. The “effect on induction of TNFα” value (TNFα synthesis) was “inhibited”, the “synergy with Doxorubicin” value ([1]; combination (A)) was “strong synergistic cytotoxicity” and the “synergy with Paclitaxel” value ([1]; combination treated group (A)) was “no synergy”. The “synergy with Paclitaxel” value ([1]; forward (B) and reverse (C) 24 hour sequences, Cpd. 2 1 μM and 2 μM) was “strong synergy”, the “synergy with Doxorubicin” value ([1]; forward (B) or reverse (C) sequences) was “No synergy” and the “Change in ear thickness (mean ± SD, ×0.01 mm)” value ([2]; 25 mg/kg i/p 30 min prior to AA, 1 hr post-AA, vehicle 14.5 ± 4.7) was 5.1 ± 1.7 ×0.01 mm. For the same compound, the “ear thickness compared with vehicle alone” value ([2]; 25 mg/kg i/p, AA-induced) was “significant reduction”.
